Measurements reported in patent publication US12533339B2, “Small molecule antiviral drug treatment for human papillomavirus infections” (THE TRUSTEES OF INDIANA UNIVERSITY, priority 2020, dated 2026).
Like-named read-outs stand apart in the source and are kept apart here.

What was measured:
E6 WT/E6AP [1] = target: T1, E6 WT/E6AP (Human papillomavirus type 16, UniProt P03126); experiment: biochemical; format: binding; details: for Emax: 24 h, read-out: FP maximal inhibition (max %) E6 WT/E6AP; for IC50: FP IC50 at 24 h (μM) E6 WT/E6AP
E6 WT/E6AP [2] = target: T1, E6 WT/E6AP; experiment: biochemical; format: binding; details: at 24 h; for Emax: E6 WT, read-out: BLI maximal Inhibition (max %) E6 WT/E6AP; for IC50: 2 μM E6 WT pre-incubated with compound
E6C51S/E6AP [3] = target: T2, E6C51S/E6AP (Human papillomavirus type 16, UniProt P03126, C58S); experiment: BLI binding assay, E6 C51S binding to captured E6AP; parameters: species or system HPV-16; details: for BLI maximal Inhibition (max %) E6C51S/E6AP: at 24 h, E6 C51S
E6 WT/E6AP [4] = target: T1, E6 WT/E6AP; experiment: biochemical; format: binding; details: WT 16E6; for inhibition at 10 µM: 10 μM compound; for inhibition at 100 µM: 100 μM compound
E6C51S/E6AP [5] = target: T2, E6C51S/E6AP; experiment: E6/E6AP binding assay (amylose-bound MBP-16E6, E6AP-BAP activity), C51S 16E6; parameters: species or system HPV-16; details: for % Inhibition @ 10 μM E6C51S/E6AP: 10 μM compound; for % Inhibition @ 100 μM E6C51S/E6AP: 100 μM compound

T2 sequence (P03126 whole entry C58S, looked up): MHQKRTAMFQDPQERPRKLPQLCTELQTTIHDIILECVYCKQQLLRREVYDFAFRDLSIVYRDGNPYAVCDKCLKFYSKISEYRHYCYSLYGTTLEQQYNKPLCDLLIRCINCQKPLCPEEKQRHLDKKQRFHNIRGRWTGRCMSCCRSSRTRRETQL
T1 sequence (P03126 8-158): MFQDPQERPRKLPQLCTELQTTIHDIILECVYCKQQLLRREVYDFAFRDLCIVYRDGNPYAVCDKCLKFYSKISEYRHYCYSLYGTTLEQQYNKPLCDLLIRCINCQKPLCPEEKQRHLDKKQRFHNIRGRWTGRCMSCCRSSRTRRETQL

Row | SMILES | Emax (E6 WT/E6AP [1]) | Emax (E6 WT/E6AP [2]) | BLI maximal Inhibition (max %) E6C51S/E6AP (E6C51S/E6AP [3]) | IC50 (E6 WT/E6AP [1]) | IC50 (E6 WT/E6AP [2]) | inhibition at 10 µM (E6 WT/E6AP [4]) | inhibition at 100 µM (E6 WT/E6AP [4]) | % Inhibition @ 10 μM E6C51S/E6AP (E6C51S/E6AP [5]) | % Inhibition @ 100 μM E6C51S/E6AP (E6C51S/E6AP [5]) | FP maximal inhibition (max %) E6 WT/E6AP (E6 WT/E6AP [1]; at 24 h) | loss of ability to inhibit mutant form E6-Cys51Ser (BLI), in words (E6C51S/E6AP [3]; FIG. 1B, E6-Cys51Ser)
1 | C=CC(=O)N1CCN(c2nc(CCc3cccc(OC)c3)nc3sc4c(c23)CCCCC4)CC1 [EIN-150, 1-(4-(2-(3-methoxyphenethyl)-6,7,8,9-tetrahydro-5H-cyclohepta[4,5]thieno[2,3-d]pyrimidin-4-yl)piperazin-1-yl)prop-2-en-1-one] | 57% | 100% | (max 100%) | – | – | – | – | – | – | – | –
2 | C=CC(=O)N1CCN(c2nc(Cc3ccccc3)nc3ccccc23)CC1 [EIN-156, 1-(4-(2-benzylquinazolin-4-yl)piperazin-1-yl)prop-2-en-1-one] | – | 100% | (max 100%) | – | – | – | – | – | – | – | –
3 | C=CC(=O)N1CCN(c2nc(CCc3ccc(F)cc3)nc3sc4c(c23)CCCC4)CC1 [EIN-136, 1-(4-(2-(4-fluorophenethyl)-5,6,7,8-tetrahydrobenzo[4,5]thieno[2,3-d]pyrimidin-4-yl)piperazin-1-yl)prop-2-en-1-one] | 55% | 100% | – | 12 ± 0.9 µM | 2.7 ± 0.3 µM | 41 ± 7% | 69 ± 2% | – | – | – | –
4 | C=CC(=O)N1CCN(c2nc(Cc3ccccc3)nc3sc4c(c23)CCCC4)CC1 [EIN-135, 1-(4-(2-benzyl-5,6,7,8-tetrahydrobenzo[4,5]thieno[2,3-d]pyrimidin-4-yl)piperazin-1-yl)prop-2-en-1-one] | 27% | 85% | – | 15.4 ± 0.4 µM | 10.9 ± 3.4 µM | 0% | 52 ± 5% | 12 ± 3% | 25 ± 4% | – | –
5 | C=CC(=O)N1CCN(c2nc(CCc3ccccc3OC)nc3sc4c(c23)CCCC4)CC1 [EIN-145, 1-(4-(2-(2-methoxyphenethyl)-5,6,7,8-tetrahydrobenzo[4,5]thieno[2,3-d]pyrimidin-4-yl)piperazin-1-yl)prop-2-en-1-one] | 59% | 65% | – | 15 ± 1.2 µM | 2 ± 0.9 µM | 32 ± 4% | 51 ± 2% | 20 ± 6% | 23 ± 7% | – | –
6 | C=CC(=O)N1CCN(c2nc(CCc3cccc(OC)c3)nc3ccccc23)CC1 [EIN-154, 1-(4-(2-(3-methoxyphenethyl)quinazolin-4-yl)piperazin-1-yl)prop-2-en-1-one] | 93% | 100% | (max 75%) | – | – | – | – | – | – | – | –
7 | COc1cccc(CCc2nc(N3CCN(C(=O)/C=C/CN(C)C)CC3)c3ccccc3n2)c1 [EIN-155, (E)-4-(dimethylamino)-1-(4-(2-(3-methoxyphenethyl)quinazolin-4-yl)piperazin-1-yl)but-2-en-1-one] | 100% | 100% | (max 100%) | – | – | – | – | – | – | – | –
8 | O=C(CCl)N1CCN(c2nc(CCc3ccccc3)nc3sc4c(c23)CCCC4)CC1 [EIN-125, 2-chloro-1-(4-(2-phenethyl-5,6,7,8-tetrahydrobenzo[4,5]thieno[2,3-d]pyrimidin-4-yl)piperazin-1-yl)ethan-1-one] | – | 100% | (max 100%) | – | – | 54 ± 13% | 102 ± 10% | 32 ± 11% | 62 ± 1% | – | –
9 | COc1cccc(CCc2nc(N3CCN(C(=O)/C=C/CN(C)C)CC3)c3c4c(sc3n2)CCCC4)c1 [EIN-148, (E)-4-(dimethylamino)-1-(4-(2-(3-methoxyphenethyl)-5,6,7,8-tetrahydrobenzo[4,5]thieno[2,3-d]pyrimidin-4-yl)piperazin-1-yl)but-2-en-1-one] | 100% | 100% | – | 20.4 ± 3 µM | 3.3 ± 0.3 µM | – | – | – | – | – | –
10 | C=CC(=O)N1CCN(c2nc(-c3ccccc3)nc3ccccc23)CC1 [EIN-157, 1-(4-(2-phenylquinazolin-4-yl)piperazin-1-yl)prop-2-en-1-one] | – | 100% | (max 100%) | – | – | – | – | – | – | – | –
11 | C=CC(=O)N1CCN(c2nc(CCc3cccc(OC)c3)nc3sc4c(c23)CCCC4)CC1 [EIN-143, 1-(4-(2-(3-methoxyphenethyl)-5,6,7,8-tetrahydrobenzo[4,5]thieno[2,3-d]pyrimidin-4-yl)piperazin-1-yl)prop-2-en-1-one] | – | 100% | – | – | 2.5 ± 0.5 µM | 44 ± 9% | 78 ± 3% | 19 ± 7% | 23 ± 10% | (max 93%) | –
12 | C=CC(=O)N1CCN(c2nc(CCc3cccc(F)c3)nc3sc4c(c23)CCCC4)CC1 [EIN-137, 1-(4-(2-(3-fluorophenethyl)-5,6,7,8-tetrahydrobenzo[4,5]thieno[2,3-d]pyrimidin-4-yl)piperazin-1-yl)prop-2-en-1-one] | – | 90% | – | – | 4.9 ± 0.6 µM | 35 ± 4% | 56 ± 4% | 15 ± 3% | 16 ± 5% | – | –
13 | C=CC(=O)N1CCCN(C(=O)CN2CCc3sccc3C2c2ccccc2C)CC1 (stereo not drawn) [EIN-122, 1-(4-(2-(4-(o-tolyl)-6,7-dihydrothieno[3,2-c]pyridin-5(4H)-yl)acetyl)-1,4-diazepan-1-yl)prop-2-en-1-one] | – | 100% | – | – | 62.7 ± 12.1 µM | 0% | 97 ± 1% | – | – | – | nearly completely lost
14 | C=CC(=O)N1CCN(c2nc(-c3ccccc3)nc3sc4c(c23)CCCC4)CC1 [EIN-133, 1-(4-(2-phenyl-5,6,7,8-tetrahydrobenzo[4,5]thieno[2,3-d]pyrimidin-4-yl)piperazin-1-yl)prop-2-en-1-one] | 9% | 60% | – | 10.4 ± 0.7 µM | 14.9 ± 6.6 µM | 26 ± 7% | 41 ± 5% | 0% | 0% | – | –
15 | C=CC(=O)N1CCN(c2nc(CCc3ccccc3)nc3sc4c(c23)CCCC4)CC1 [EIN-132, 1-(4-(2-phenethyl-5,6,7,8-tetrahydrobenzo[4,5]thieno[2,3-d]pyrimidin-4-yl)piperazin-1-yl)prop-2-en-1-one] | – | 100% | (max 100%) | – | – | 3.5 ± 2% | 61 ± 2% | 0% | 19 ± 5% | – | –
16 | CC#CC(=O)N1CCN(c2nc(CCc3cccc(OC)c3)nc3sc4c(c23)CCCC4)CC1 [EIN-147, 1-(4-(2-(3-methoxyphenethyl)-5,6,7,8-tetrahydrobenzo[4,5]thieno[2,3-d]pyrimidin-4-yl)piperazin-1-yl)but-2-yn-1-one] | – | 100% | (max 100%) | – | – | – | – | – | – | – | –
17 | C=CC(=O)N1CCN(c2nc(NCc3ccccc3)nc3sc4c(c23)CCCC4)CC1 [EIN-134, 1-(4-(2-(benzylamino)-5,6,7,8-tetrahydrobenzo[4,5]thieno[2,3-d]pyrimidin-4-yl)piperazin-1-yl)prop-2-en-1-one] | 11% | 100% | – | 12.1 ± 0.7 µM | 32.6 ± 19.2 µM | 18 ± 6% | 35 ± 4% | 0% | 0% | – | –
18 | C=CC(=O)N1CCN(c2nc(Cc3ccc(F)cc3)nc3sc4c(c23)CCCC4)CC1 [EIN-146, 1-(4-(2-(4-fluorobenzyl)-5,6,7,8-tetrahydrobenzo[4,5]thieno[2,3-d]pyrimidin-4-yl)piperazin-1-yl)prop-2-en-1-one] | 20% | 100% | (max 100%) | – | – | 16 ± 4% | 30 ± 3% | 11 ± 7% | 15 ± 8% | – | –
19 | C=CC(=O)N1CCN(c2nc(CCc3ccc(OC)cc3)nc3sc4c(c23)CCCC4)CC1 [EIN-144, 1-(4-(2-(4-methoxyphenethyl)-5,6,7,8-tetrahydrobenzo[4,5]thieno[2,3-d]pyrimidin-4-yl)piperazin-1-yl)prop-2-en-1-one] | 63% | 62% | – | 14.8 ± 1.2 µM | 1.6 ± 0.5 µM | 12 ± 6% | 45 ± 4% | 9 ± 9% | 17 ± 5% | – | –
20 | C=CC(=O)N1CCN(c2nc(CCc3ccccc3F)nc3sc4c(c23)CCCC4)CC1 [EIN-138, 1-(4-(2-(2-fluorophenethyl)-5,6,7,8-tetrahydrobenzo[4,5]thieno[2,3-d]pyrimidin-4-yl)piperazin-1-yl)prop-2-en-1-one] | – | 90% | – | – | 4.1 ± 0.5 µM | 20 ± 6% | 57 ± 3% | 16 ± 6% | 19 ± 7% | – | –
